For experiment [1], the target named is human orexin-1 receptor (Homo sapiens (Human), UniProt O43613). The experiment in a line: In vitro assay: intracellular calcium measurements (FLIPR), antagonistic activity. The class given is cell-based. The settings on record: CHO cells, 3 nM orexin-A, marked values are geometric means of n = 2-6, read-out: IC50 OX1. (In general: A change in cytosolic calcium serves as a functional read-out for many receptors and channels.)

In experiment [2] the target is human orexin-2 receptor (Homo sapiens (Human), UniProt O43614). The experiment is described as above. The format is cell-based. The following applies: CHO cells, 3 nM orexin-A, marked values are geometric means of n = 2-6, read-out: IC50 OX2.
Chain of human orexin-2 receptor (O43614 whole entry): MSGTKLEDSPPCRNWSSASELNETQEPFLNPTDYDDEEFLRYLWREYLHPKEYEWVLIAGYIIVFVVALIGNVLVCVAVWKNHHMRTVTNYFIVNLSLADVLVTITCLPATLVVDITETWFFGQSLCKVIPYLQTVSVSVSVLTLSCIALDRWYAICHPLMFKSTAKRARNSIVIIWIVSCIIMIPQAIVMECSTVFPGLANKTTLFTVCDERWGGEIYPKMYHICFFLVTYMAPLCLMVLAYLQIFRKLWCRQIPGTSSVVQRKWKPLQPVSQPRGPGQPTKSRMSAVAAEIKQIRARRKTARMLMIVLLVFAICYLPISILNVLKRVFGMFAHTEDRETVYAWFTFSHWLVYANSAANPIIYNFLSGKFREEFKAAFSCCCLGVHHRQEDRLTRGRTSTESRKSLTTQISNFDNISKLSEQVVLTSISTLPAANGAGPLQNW
The mark [3] stands for this setting: compound incubation time of 10 min.

IC50 data for 34 molecules are collected here from US9242970B2 (ACTELION PHARMACEUTICALS LTD., priority 2010, dated 2016).

Like-named read-outs stand apart in the source and are kept apart here.

Chain of human orexin-1 receptor (O43613 whole entry): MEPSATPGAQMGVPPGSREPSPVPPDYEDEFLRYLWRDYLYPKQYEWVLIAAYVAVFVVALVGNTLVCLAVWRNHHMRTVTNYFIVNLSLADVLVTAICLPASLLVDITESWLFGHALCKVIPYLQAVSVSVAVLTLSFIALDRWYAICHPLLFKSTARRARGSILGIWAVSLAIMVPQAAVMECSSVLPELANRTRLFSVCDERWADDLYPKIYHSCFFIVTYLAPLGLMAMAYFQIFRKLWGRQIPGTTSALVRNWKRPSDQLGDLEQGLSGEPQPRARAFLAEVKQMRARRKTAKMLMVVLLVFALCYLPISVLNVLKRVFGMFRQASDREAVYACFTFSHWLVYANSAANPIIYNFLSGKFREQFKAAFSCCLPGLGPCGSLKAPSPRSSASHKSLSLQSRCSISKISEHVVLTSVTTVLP

As to `COc1cccc(OC)c1C1CCC(=O)N1Cc1cccc(N2CCCCC2)n1` (centres unmarked) [Example 130, 5-(2,6-dimethoxyphenyl)-1-((6-(piperidin-1-yl)pyridin-2-yl)methyl)pyrrolidin-2-one], the figures for the 50% inhibitory concentration (IC50) in experiment [1] (compound incubation 120 min) and in experiment [2] (compound incubation 120 min) were 636 nM and 690 nM, respectively.

As to `COc1cccc(OC)c1C1CC(C)C(=O)N1Cc1ccc2ccccc2c1` (centres unmarked) [Example 131, 5-(2,6-dimethoxyphenyl)-3-methyl-1-(naphthalen-2-ylmethyl)pyrrolidin-2-one], the concentration for half-maximal inhibition (IC50) – broadly, the concentration that gives 50% inhibition – in experiment [1] (compound incubation 120 min) is 27 nM; in experiment [2] (compound incubation 120 min), 455 nM.

Consider `COc1cccc(OC)c1C1CC(C)C(=O)N1Cc1cccc(-c2nccs2)c1` (centres unmarked) [Example 132, 5-(2,6-dimethoxyphenyl)-3-methyl-1-(3-(thiazol-2-yl)benzyl)pyrrolidin-2-one], for which the IC50 in experiment [1] (compound incubation 120 min) was determined as 4 nM; in experiment [2] (compound incubation 120 min) it was 44 nM.

As for `COc1cccc(OC)c1C1CC(C)C(=O)N1Cc1cccc(-c2csc(C)n2)c1` (centres unmarked) [Example 133, 5-(2,6-dimethoxyphenyl)-3-methyl-1-(3-(2-methylthiazol-4-yl)benzyl)pyrrolidin-2-one], the half-inhibitory concentration (IC50) in experiment [1] (compound incubation 120 min) amounted to 2 nM; in experiment [2] (compound incubation 120 min) it was 24 nM.

For `COc1cccc(OC)c1C1CC(C)C(=O)N1Cc1cccc(N2CCCCC2)c1` (centres unmarked) [Example 134, 5-(2,6-dimethoxyphenyl)-3-methyl-1-(3-(piperidin-1-yl)benzyl)pyrrolidin-2-one], the concentration for half-maximal inhibition (IC50) was 37 nM in experiment [1] (compound incubation 120 min) and 157 nM in experiment [2] (compound incubation 120 min).

With `COc1cccc(OC)c1C1CC(C)C(=O)N1Cc1cccc(-n2cccn2)c1` (centres unmarked) [Example 135, 1-(3-(1H-pyrazol-1-yl)benzyl)-5-(2,6-dimethoxyphenyl)-3-methylpyrrolidin-2-one], the results for the half-maximal inhibitory concentration (IC50) in experiment [1] (compound incubation 120 min) and in experiment [2] (compound incubation 120 min) were 23 nM and 264 nM, respectively.

Turning to `COc1cccc(OC)c1C1CCC(=O)N1Cc1cccc(-c2noc(C)n2)c1` (centres unmarked) [Example 136, 5-(2,6-dimethoxyphenyl)-1-(3-(5-methyl-1,2,4-oxadiazol-3-yl)benzyl)pyrrolidin-2-one], the half-inhibitory concentration (IC50) in experiment [1] (compound incubation 120 min) was 219 nM; in experiment [2] (compound incubation 120 min), 547 nM.

Take `COc1cccc(OC)c1C1CC(C)C(=O)N1Cc1ccc2oc3ccccc3c2c1` (centres unmarked) [Example 137, 1-(dibenzo[b,d]furan-2-ylmethyl)-5-(2,6-dimethoxyphenyl)-3-methylpyrrolidin-2-one]: the IC50 in experiment [1] (compound incubation 120 min) turned out to be 2 nM; in experiment [2] (compound incubation 120 min), 5 nM.

For `COc1cccc(OC)c1C1CC(C)C(=O)N1Cc1cccc(-c2ccccc2)n1` (centres unmarked) [Example 138, 5-(2,6-dimethoxyphenyl)-3-methyl-1-((6-phenylpyridin-2-yl)methyl)pyrrolidin-2-one], the IC50 in experiment [1] (compound incubation 120 min) amounted to 32 nM; in experiment [2] (compound incubation 120 min), 29 nM.

Take `COc1cccc(OC)c1C1CC(C)C(=O)N1Cc1ccnc(-c2ccccc2)c1` (centres unmarked) [Example 139, 5-(2,6-dimethoxyphenyl)-3-methyl-1-((2-phenylpyridin-4-yl)methyl)pyrrolidin-2-one]: the IC50 is 35 nM in experiment [1] (compound incubation 120 min) and 172 nM in experiment [2] (compound incubation 120 min).

For the molecule `COc1cccc(OC)c1C1CC(C)C(=O)N1Cc1cccc(-c2ccccn2)c1` (centres unmarked) [Example 140, 5-(2,6-dimethoxyphenyl)-3-methyl-1-(3-(pyridin-2-yl)benzyl)pyrrolidin-2-one], the IC50 turned out to be 10 nM in experiment [1] (compound incubation 120 min) and 73 nM in experiment [2] (compound incubation 120 min).

On to `COc1cccc(OC)c1C1CC(C)C(=O)N1Cc1cccc(-c2cccnc2)c1` (centres unmarked) [Example 141, 5-(2,6-dimethoxyphenyl)-3-methyl-1-(3-(pyridin-3-yl)benzyl)pyrrolidin-2-one], for which the IC50 in experiment [1] (compound incubation 120 min) was found to be 35 nM; in experiment [2] (compound incubation 120 min), 28 nM.

On to `COc1cccc(OC)c1C1CC(C)C(=O)N1Cc1cccc(-c2ncccn2)c1` (centres unmarked) [Example 142, 5-(2,6-dimethoxyphenyl)-3-methyl-1-(3-(pyrimidin-2-yl)benzyl)pyrrolidin-2-one], for which the 50% inhibitory concentration (IC50) was determined as 11 nM in experiment [1] (compound incubation 120 min) and 40 nM in experiment [2] (compound incubation 120 min).

For `COc1cccc(OC)c1C1CC(C)C(=O)N1Cc1cccc(-c2noc(C)n2)c1` (centres unmarked) [Example 143, 5-(2,6-dimethoxyphenyl)-3-methyl-1-(3-(5-methyl-1,2,4-oxadiazol-3-yl)benzyl)pyrrolidin-2-one], the IC50 was determined as 27 nM in experiment [1] (compound incubation 120 min) and 46 nM in experiment [2] (compound incubation 120 min).

As for `COc1cccc(OC)c1C1CC(C)C(=O)N1Cc1cnn(-c2ccccc2)c1` (centres unmarked) [Example 144, 5-(2,6-dimethoxyphenyl)-3-methyl-1-((1-phenyl-1H-pyrazol-4-yl)methyl)pyrrolidin-2-one], the IC50 in experiment [1] (compound incubation 120 min) is 223 nM; in experiment [2] (compound incubation 120 min) it was 318 nM.

Regarding `COc1cccc(OC)c1C1CC(C)C(=O)N1Cc1csc(-c2ccccc2)n1` (centres unmarked) [Example 145, 5-(2,6-dimethoxyphenyl)-3-methyl-1-((2-phenylthiazol-4-yl)methyl)pyrrolidin-2-one], the figures for the IC50 in experiment [1] (compound incubation 120 min) and in experiment [2] (compound incubation 120 min) were 28 nM and 54 nM, respectively.

For `COc1cccc(OC)c1C1CC(C)C(=O)N1Cc1cccc(-c2ccccn2)c1F` (centres unmarked) [Example 146, 5-(2,6-dimethoxyphenyl)-1-(2-fluoro-3-(pyridin-2-yl)benzyl)-3-methylpyrrolidin-2-one], the half-inhibitory concentration (IC50) was determined as 39 nM in experiment [1] (compound incubation 120 min) and 230 nM in experiment [2] (compound incubation 120 min).

In the case of `COc1cccc(OC)c1C1CC(C)C(=O)N1Cc1cccc(-c2cncs2)c1` (centres unmarked) [Example 147, 5-(2,6-dimethoxyphenyl)-3-methyl-1-(3-(thiazol-5-yl)benzyl)pyrrolidin-2-one], the concentration for half-maximal inhibition (IC50) in experiment [1] (compound incubation 120 min) was found to be 20 nM; in experiment [2] (compound incubation 120 min), 114 nM.

In the case of `COc1cccc(OC)c1C1CC(C)C(=O)N1Cc1cccc(-c2ncc(C)s2)c1` (centres unmarked) [Example 148, 5-(2,6-dimethoxyphenyl)-3-methyl-1-(3-(5-methylthiazol-2-yl)benzyl)pyrrolidin-2-one], the figures for the IC50 in experiment [1] (compound incubation 120 min) and in experiment [2] (compound incubation 120 min) were 3 nM and 21 nM, respectively.

For the molecule `COc1cccc(OC)c1C1CC(C)C(=O)N1Cc1cccc(-n2nccn2)c1` (centres unmarked) [Example 149, 1-(3-(2H-1,2,3-triazol-2-yl)benzyl)-5-(2,6-dimethoxyphenyl)-3-methylpyrrolidin-2-one], the IC50 in experiment [1] (compound incubation 120 min) is 6 nM; in experiment [2] (compound incubation 120 min) it was 77 nM.

Take `COc1cccc(OC)c1C1CC(C)C(=O)N1Cc1cccc(-c2cscn2)c1` (centres unmarked) [Example 150, 5-(2,6-dimethoxyphenyl)-3-methyl-1-(3-(thiazol-4-yl)benzyl)pyrrolidin-2-one]: the IC50 in experiment [1] (compound incubation 120 min) was 7 nM; in experiment [2] (compound incubation 120 min), 47 nM.

In the case of `COc1cccc(OC)c1C1CC(C)C(=O)N1Cc1ccc2nc(C)sc2c1` (centres unmarked) [Example 151, 5-(2,6-dimethoxyphenyl)-3-methyl-1-((2-methylbenzo[d]thiazol-6-yl)methyl)pyrrolidin-2-one], the half-maximal inhibitory concentration (IC50) in experiment [1] (compound incubation 120 min) is 125 nM; in experiment [2] (compound incubation 120 min) it was 703 nM.

On to `COc1cccc(OC)c1C1CC(C)C(=O)N1Cc1cc(Cl)cc(-c2ccccn2)c1` (centres unmarked) [Example 152, 1-(3-chloro-5-(pyridin-2-yl)benzyl)-5-(2,6-dimethoxyphenyl)-3-methylpyrrolidin-2-one], for which the IC50 in experiment [1] (compound incubation 120 min) came to 74 nM; in experiment [2] (compound incubation 120 min), 270 nM.

Consider `COc1cccc(OC)c1C1CC(C)C(=O)N1Cc1ccc(F)c(-c2ccccn2)c1` (centres unmarked) [Example 153, 5-(2,6-dimethoxyphenyl)-1-(4-fluoro-3-(pyridin-2-yl)benzyl)-3-methylpyrrolidin-2-one], for which the IC50 in experiment [1] (compound incubation 120 min) came out at 8 nM; in experiment [2] (compound incubation 120 min), 122 nM.

As to `COc1cccc(OC)c1C1CC(C)C(=O)N1Cc1ccnc(-n2cccn2)c1` (centres unmarked) [Example 154, 1-((2-(1H-pyrazol-1-yl)pyridin-4-yl)methyl)-5-(2,6-dimethoxyphenyl)-3-methylpyrrolidin-2-one], the IC50 in experiment [1] (compound incubation 120 min) is 10 nM; in experiment [2] (compound incubation 120 min), 204 nM.

As to `COc1cccc(OC)c1C1CC(C)C(=O)N1Cc1cccc(-n2cccn2)n1` (centres unmarked) [Example 155, 1-((6-(1H-pyrazol-1-yl)pyridin-2-yl)methyl)-5-(2,6-dimethoxyphenyl)-3-methylpyrrolidin-2-one], the IC50 stood at 134 nM in experiment [1] (compound incubation 120 min) and 1180 nM in experiment [2] (compound incubation 120 min).

For `COc1cccc(OC)c1C1CCCC(=O)N1Cc1ccc(OC(F)(F)F)cc1` (centres unmarked) [Example 156, 6-(2,6-dimethoxyphenyl)-1-(4-(trifluoromethoxy)benzyl)piperidin-2-one], the values for the half-inhibitory concentration (IC50) in experiment [1] (setting [3]) and in experiment [2] (setting [3]) were 259 nM and 22 nM, respectively.

For the molecule `COc1cccc(OC)c1C1CCCC(=O)N1Cc1ccc(F)cc1` (centres unmarked) [Example 157, 6-(2,6-dimethoxyphenyl)-1-(4-fluorobenzyl)piperidin-2-one], the half-maximal inhibitory concentration (IC50) in experiment [1] (setting [3]) came out at 1460 nM; in experiment [2] (setting [3]), 231 nM.

On to `COc1cccc(OC)c1C1CCCC(=O)N1Cc1ccc(Cl)cc1` (centres unmarked) [Example 158, 1-(4-chlorobenzyl)-6-(2,6-dimethoxyphenyl)piperidin-2-one], for which the half-inhibitory concentration (IC50) in experiment [1] (setting [3]) was 702 nM; in experiment [2] (setting [3]), 154 nM.

Consider `COc1ccc(CN2C(=O)CCCC2c2c(OC)cccc2OC)cc1` (centres unmarked) [Example 159, 6-(2,6-dimethoxyphenyl)-1-(4-methoxybenzyl)piperidin-2-one], for which the IC50 in experiment [1] (setting [3]) came to 684 nM; in experiment [2] (setting [3]), 397 nM.

Consider `COc1cccc(OC)c1C1CCCC(=O)N1Cc1ccc(OC(F)(F)F)c(F)c1` (centres unmarked) [Example 160, 6-(2,6-dimethoxyphenyl)-1-(3-fluoro-4-(trifluoromethoxy)benzyl)piperidin-2-one], for which the IC50 in experiment [1] (setting [3]) came out at 238 nM; in experiment [2] (setting [3]), 18 nM.

Consider `COc1cccc(OC)c1C1CCCC(=O)N1Cc1ccc(OC(F)(F)F)c(Cl)c1` (centres unmarked) [Example 161, 1-(3-chloro-4-(trifluoromethoxy)benzyl)-6-(2,6-dimethoxyphenyl)piperidin-2-one], for which the half-inhibitory concentration (IC50) worked out at 147 nM in experiment [1] (setting [3]) and 62 nM in experiment [2] (setting [3]).

`COc1cccc(OC)c1C1CCCC(=O)N1Cc1ccc(SC(F)(F)F)cc1` (centres unmarked) [Example 162, 6-(2,6-dimethoxyphenyl)-1-(4-((trifluoromethyl)thio)benzyl)piperidin-2-one]: the IC50 in experiment [1] (setting [3]) came to 1310 nM; in experiment [2] (setting [3]) it was 62 nM.

For the molecule `COc1cccc(OC)c1C1CCCC(=O)N1Cc1ccc(C(F)(F)F)cc1` (centres unmarked) [Example 163, 6-(2,6-dimethoxyphenyl)-1-(4-(trifluoromethyl)benzyl)piperidin-2-one], the IC50 in experiment [1] (setting [3]) stood at 1190 nM; in experiment [2] (setting [3]) it was 171 nM.
